According to patent publication US11903959B2 (EMORY UNIVERSITY, priority 2017, dated 2024):
Several values for one entry are separate records, joined by “and”; a condition that tells them apart may be missing. Equal values may be shown once. Read-outs that look alike come from different tables or passages of the source.

Assays:
[1] = rat, in vivo, po, 50 mg/kg
[2] = tested on: Flu A H5N1 (Low Path); assay: microbe, parasite or virus in culture; assay type: cell-based; settings: Influenza A virus, H5N1, MDCK
[3] = tested on: Pichinde virus; assay: microbe, parasite or virus in culture; assay type: cell-based; settings: Vero, Vero cells
[4] = tested on: WNV; assay: microbe, parasite or virus in culture; assay type: cell-based; settings: West Nile virus, Vero 76
[5] = tested on: Junin virus; assay: microbe, parasite or virus in culture; assay type: cell-based; settings: Mammarenavirus juninense, Vero, Vero cells
[6] = in vivo; settings: ICR (CD-1), mouse, 180 mg/kg
[7] = cynomolgus monkey, in vivo, po; for AUC0->24 h / CL / Cmax / t1/2 / tmax: 0.4 mmol/kg
[8] = tested on: HRV-14; assay: microbe, parasite or virus in culture; assay type: cell-based
[9] = tested on: Tacaribe virus; assay: microbe, parasite or virus in culture; assay type: cell-based; settings: Mammarenavirus tacaribeense, Vero, Vero cells
[10] = tested on: NV; assay: microbe, parasite or virus in culture; assay type: cell-based; settings: Norovirus, HG23
[11] = tested on: Flu A H7N9 (High Path); assay: microbe, parasite or virus in culture; assay type: cell-based; settings: Influenza A virus, H7N9, MDCK, MDCK cells
[12] = female, in vivo, po
[13] = female, DBA-1J, mouse, in vivo
[14] = in vivo; settings: dog, 140 mg/kg
[15] = in vivo; settings: female, DBA-1J, mouse, po
[16] = tested on: WEEV; assay: microbe, parasite or virus in culture; assay type: cell-based; settings: Western equine encephalitis virus
[17] = tested on: Enterovirus-68; assay type: cell-based
[18] = Plasma pharmacokinetics in dogs after a single dose of EIDD-2800; settings: dog, 140 mg/kg
[19] = tested on: Lymphocytic choriomeningitis virus; assay: microbe, parasite or virus in culture; assay type: cell-based; settings: Mammarenavirus choriomeningitidis, Vero
[20] = tested on: MERS; assay: microbe, parasite or virus in culture; assay type: cell-based, MERS coronavirus; settings: Middle East respiratory syndrome-related coronavirus, Vero C1008
[21] = Cytotoxicity (CC50) run with antiviral assays, HeLa-Ohio cells; settings: human
[22] = tested on: SARS; assay: microbe, parasite or virus in culture; assay type: cell-based, SARS coronavirus; settings: Severe acute respiratory syndrome coronavirus
[23] = tested on: Vero cells
[24] = Plasma pharmacokinetics in mice after a single dose of EIDD-2800; settings: ICR (CD-1), mouse, oral, 180 mg/kg
[25] = tested on: Flu A H5N1 (High Path); assay: microbe, parasite or virus in culture; assay type: cell-based; settings: Influenza A virus, H5N1, MDCK, MDCK cells

In the case of `O=c1nc(NO)ccn1C1OC(CO)C(O)C1O` (stereo not drawn) [EIDD-1931, 1-(3,4-dihydroxy-5-(hydroxymethyl)tetrahydrofuran-2-yl)-4-(hydroxyamino)pyrimidin-2-one], the “calculated bioavailability (% F)” value ([1]; male, Sprague-Dawley (SD)) is reported as 28%, the tissue distribution [1] is reported as “well distributed into all tissues tested” and the EC50 [2] is reported as 1280 nM. The EC50 [3] was 18.4 µM, the EC50 [4] was > 400 µM and the EC50 [5] was 18.4 µM. The half-life [6] was 112 min, the bioavailability [7] was “low bioavailability” and the F ([7]; female) was ~3%. For the same molecule, the “AUC0->24 h” value ([7]; female) was 7.21 ± 4.21 nmol·h/mL, the CL ([7]; female) was 65.7 ± 31.6 L/h/kg and the Cmax ([7]; female) was 3.31 ± 1.99 µM. The t1/2 ([7]; female) was 46.8 ± 12 min, the tmax ([7]; female) was 52.2 ± 45 min and the “AUC0->24 h” value ([7]; male) was 5.75 ± 1.99 nmol·h/mL. For the same molecule, the CL ([7]; male) was 70.1 ± 18.7 L/h/kg, the Cmax ([7]; male) was 3.31 ± 1.82 µM and the t1/2 ([7]; male) was 72 ± 72 min. For the same molecule, the tmax ([7]; male) was 45 ± 16.8 min, the EC50 [8] was 1360 nM and the EC50 ([8]; Rhinovirus B, HRV14) was 1280 nM. For the same molecule, the EC50 [9] was 14.4 µM, the EC50 [10] was > 100 µM and the EC90 [10] was > 100 µM. For the same molecule, the EC50 [11] was > 48 µM, the t1/2 ([12]; 4 mg/kg) was 8.2 ± 1.7 h and the t1/2 ([12]; 20 mg/kg) was 4.7 ± 1.3 h. The t1/2 ([12]; outbred, 128 mg/kg) was 5.1 ± 0.8 h, the t1/2 ([12]; outbred, 512 mg/kg) was 4.2 ± 0.6 h and the “Bioavailability (versus i.p. delivery)” value [13] was 39-46%. The “Bioavailability (versus i.p. delivery)” value ([13]; 30 mg/kg) was 65%, the “plasma T1/2” value ([13]; iv) was 2.2 h and the Cmax [14] was 113 ± 21.1 µM. For the same molecule, the half-life [14] was 288 ± 60 min, the half-life [15] was 246 to 282 min and the Cmax ([15]; 30 mg/kg) was 3000 ng/mL. For the same molecule, the Cmax ([15]; 100 mg/kg) was 7700 ng/mL, the Cmax ([15]; 300 mg/kg) was 11700 ng/mL and the tmax ([15]; 300 mg/kg) was 15 to 30 min. For the same molecule, the EC90 ([16]; Vero 76) was < 1280 nM, the EC50 ([16]; Vero 76, WEEV, Vero76 cells) was 1280 nM and the EC50 ([16]; Vero, WEE virus, Vero cell cytopathic effect (CPE) model) was 1360 nM. The EC50 [17] was 1280 nM and 1160 nM, the AUC(0-inf) [18] was 498 ± 40.4 µM·h and the tmax [18] was 1.4 ± 0.5 h. For the same molecule, the EC90 [19] was 25.2 µM, the EC50 [20] was < 800 nM and the EC90 [20] was < 800 nM. For the same molecule, the CC50 [21] was > 40 µM, the EC90 ([22]; Vero 76) was 560 nM and the EC90 ([22]; Vero C1008) was < 800 nM. The EC50 ([22]; Vero C1008, SARS, Vero E6 cells) was < 800 nM, the “AUC0->t” value [23] was 228.6 pmol · h/M cells and the AUC(0-inf) [24] was 42.5 µM·h. The Cmax [24] was 11.4 µM, the tmax [24] was 30 min and the EC50 [25] was > 88 µM.
